{"source": "the supplement of paper PMC13386468", "assay_in_all_cases": "IC50 for competition of protein binding to Kinobeads", "conditions_in_all_cases": "assay detail: Kinobeads competition in P. falciparum blood-stage lysate", "key": {"UniProt C0H4X1": {"biological_target": "UniProt C0H4X1"}, "UniProt C0H516": {"biological_target": "UniProt C0H516"}, "UniProt C0H551": {"biological_target": "UniProt C0H551"}, "UniProt C0H5A0": {"biological_target": "UniProt C0H5A0"}, "UniProt C0H5C2": {"biological_target": "UniProt C0H5C2"}, "UniProt C0H5L6": {"biological_target": "UniProt C0H5L6"}, "UniProt C6KSZ6": {"biological_target": "UniProt C6KSZ6"}, "UniProt C6KT64": {"biological_target": "UniProt C6KT64"}, "UniProt O77330": {"biological_target": "UniProt O77330"}, "UniProt O77345": {"biological_target": "UniProt O77345"}, "UniProt O77388": {"biological_target": "UniProt O77388"}, "UniProt O96212": {"biological_target": "UniProt O96212"}, "UniProt Q6ZMA8": {"biological_target": "UniProt Q6ZMA8"}, "UniProt Q76NN6": {"biological_target": "UniProt Q76NN6"}, "UniProt Q7K6A8": {"biological_target": "UniProt Q7K6A8"}, "UniProt Q8I266": {"biological_target": "UniProt Q8I266", "sequence (Q8I266 whole entry)": "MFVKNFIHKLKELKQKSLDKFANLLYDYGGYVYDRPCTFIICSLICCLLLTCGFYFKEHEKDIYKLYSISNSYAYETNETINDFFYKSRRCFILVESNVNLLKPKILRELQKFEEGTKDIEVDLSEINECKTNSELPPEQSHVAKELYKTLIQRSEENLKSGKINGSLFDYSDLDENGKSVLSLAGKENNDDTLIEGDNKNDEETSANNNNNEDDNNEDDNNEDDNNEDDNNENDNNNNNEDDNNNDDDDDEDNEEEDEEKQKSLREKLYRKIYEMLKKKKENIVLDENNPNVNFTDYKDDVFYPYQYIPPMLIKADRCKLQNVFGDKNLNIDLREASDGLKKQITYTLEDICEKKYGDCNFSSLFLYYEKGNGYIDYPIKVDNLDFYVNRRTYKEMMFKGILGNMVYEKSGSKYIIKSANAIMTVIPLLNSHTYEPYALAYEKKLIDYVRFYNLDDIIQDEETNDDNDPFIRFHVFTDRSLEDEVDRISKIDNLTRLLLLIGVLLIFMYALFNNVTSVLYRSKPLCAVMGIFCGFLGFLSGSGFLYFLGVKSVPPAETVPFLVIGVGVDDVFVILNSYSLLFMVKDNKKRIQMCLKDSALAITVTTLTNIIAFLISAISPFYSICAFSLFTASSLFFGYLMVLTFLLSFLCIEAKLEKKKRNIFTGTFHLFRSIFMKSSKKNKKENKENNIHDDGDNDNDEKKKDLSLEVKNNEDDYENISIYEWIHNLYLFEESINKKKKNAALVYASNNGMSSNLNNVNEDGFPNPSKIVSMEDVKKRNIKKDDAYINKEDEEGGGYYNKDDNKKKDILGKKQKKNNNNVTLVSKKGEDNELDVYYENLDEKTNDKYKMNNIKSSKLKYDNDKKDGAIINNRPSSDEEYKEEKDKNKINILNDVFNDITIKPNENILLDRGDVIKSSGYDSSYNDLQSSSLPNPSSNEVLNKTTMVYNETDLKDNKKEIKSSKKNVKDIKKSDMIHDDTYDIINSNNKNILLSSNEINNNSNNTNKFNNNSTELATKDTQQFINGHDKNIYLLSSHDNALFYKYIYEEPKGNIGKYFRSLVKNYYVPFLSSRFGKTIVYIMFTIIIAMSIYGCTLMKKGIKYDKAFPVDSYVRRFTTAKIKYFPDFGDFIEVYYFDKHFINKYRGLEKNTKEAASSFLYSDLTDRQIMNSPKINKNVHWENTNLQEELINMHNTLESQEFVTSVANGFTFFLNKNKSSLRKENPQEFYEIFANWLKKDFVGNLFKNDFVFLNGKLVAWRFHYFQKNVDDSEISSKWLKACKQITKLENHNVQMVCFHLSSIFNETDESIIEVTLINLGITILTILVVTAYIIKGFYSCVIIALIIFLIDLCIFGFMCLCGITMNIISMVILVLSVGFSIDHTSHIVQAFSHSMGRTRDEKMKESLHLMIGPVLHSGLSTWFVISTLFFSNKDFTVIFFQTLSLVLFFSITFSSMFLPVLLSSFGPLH"}, "UniProt Q8I2J4": {"biological_target": "UniProt Q8I2J4", "sequence (Q8I2J4 whole entry)": "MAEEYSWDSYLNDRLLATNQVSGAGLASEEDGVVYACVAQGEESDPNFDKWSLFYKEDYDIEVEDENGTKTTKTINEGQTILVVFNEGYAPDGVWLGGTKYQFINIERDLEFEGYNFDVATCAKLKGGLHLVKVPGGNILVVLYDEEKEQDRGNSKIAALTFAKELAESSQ"}, "UniProt Q8I3L4": {"biological_target": "UniProt Q8I3L4"}, "UniProt Q8I3Q6": {"biological_target": "UniProt Q8I3Q6"}, "UniProt Q8I4R5": {"biological_target": "UniProt Q8I4R5"}, "UniProt Q8I4V8": {"biological_target": "UniProt Q8I4V8", "sequence (Q8I4V8 whole entry)": "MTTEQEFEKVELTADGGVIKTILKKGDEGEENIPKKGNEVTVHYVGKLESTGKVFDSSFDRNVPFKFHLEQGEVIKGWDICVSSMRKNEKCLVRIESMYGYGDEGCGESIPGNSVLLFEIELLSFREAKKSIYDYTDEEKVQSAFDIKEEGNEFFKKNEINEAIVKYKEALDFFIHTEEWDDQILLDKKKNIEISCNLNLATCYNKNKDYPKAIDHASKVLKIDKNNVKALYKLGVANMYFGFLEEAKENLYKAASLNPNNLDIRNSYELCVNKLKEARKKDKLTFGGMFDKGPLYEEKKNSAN"}, "UniProt Q8I535": {"biological_target": "UniProt Q8I535"}, "UniProt Q8I5A4": {"biological_target": "UniProt Q8I5A4"}, "UniProt Q8I5B2": {"biological_target": "UniProt Q8I5B2"}, "UniProt Q8I5S6": {"biological_target": "UniProt Q8I5S6"}, "UniProt Q8IAV1": {"biological_target": "UniProt Q8IAV1"}, "UniProt Q8IBA0": {"biological_target": "UniProt Q8IBA0"}, "UniProt Q8IBK8": {"biological_target": "UniProt Q8IBK8"}, "UniProt Q8IBY4": {"biological_target": "UniProt Q8IBY4"}, "UniProt Q8IC06": {"biological_target": "UniProt Q8IC06"}, "UniProt Q8IDH5": {"biological_target": "UniProt Q8IDH5"}, "UniProt Q8IDI5": {"biological_target": "UniProt Q8IDI5"}, "UniProt Q8II62": {"biological_target": "UniProt Q8II62"}, "UniProt Q8IIB4": {"biological_target": "UniProt Q8IIB4"}, "UniProt Q8IIJ6": {"biological_target": "UniProt Q8IIJ6", "sequence (Q8IIJ6 whole entry)": "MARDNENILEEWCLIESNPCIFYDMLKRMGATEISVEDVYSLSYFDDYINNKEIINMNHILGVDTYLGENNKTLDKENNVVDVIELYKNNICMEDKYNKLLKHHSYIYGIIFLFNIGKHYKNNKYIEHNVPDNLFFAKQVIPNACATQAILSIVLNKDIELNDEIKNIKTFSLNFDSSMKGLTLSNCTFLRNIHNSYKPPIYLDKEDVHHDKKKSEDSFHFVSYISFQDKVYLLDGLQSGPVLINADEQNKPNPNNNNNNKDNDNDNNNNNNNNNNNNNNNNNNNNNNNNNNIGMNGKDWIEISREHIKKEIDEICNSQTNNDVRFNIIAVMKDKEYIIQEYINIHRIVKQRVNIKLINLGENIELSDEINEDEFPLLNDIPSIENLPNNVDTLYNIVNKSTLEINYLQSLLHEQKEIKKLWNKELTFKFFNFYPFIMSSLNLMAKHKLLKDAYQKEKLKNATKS"}, "UniProt Q8IIL0": {"biological_target": "UniProt Q8IIL0", "sequence (Q8IIL0 whole entry)": "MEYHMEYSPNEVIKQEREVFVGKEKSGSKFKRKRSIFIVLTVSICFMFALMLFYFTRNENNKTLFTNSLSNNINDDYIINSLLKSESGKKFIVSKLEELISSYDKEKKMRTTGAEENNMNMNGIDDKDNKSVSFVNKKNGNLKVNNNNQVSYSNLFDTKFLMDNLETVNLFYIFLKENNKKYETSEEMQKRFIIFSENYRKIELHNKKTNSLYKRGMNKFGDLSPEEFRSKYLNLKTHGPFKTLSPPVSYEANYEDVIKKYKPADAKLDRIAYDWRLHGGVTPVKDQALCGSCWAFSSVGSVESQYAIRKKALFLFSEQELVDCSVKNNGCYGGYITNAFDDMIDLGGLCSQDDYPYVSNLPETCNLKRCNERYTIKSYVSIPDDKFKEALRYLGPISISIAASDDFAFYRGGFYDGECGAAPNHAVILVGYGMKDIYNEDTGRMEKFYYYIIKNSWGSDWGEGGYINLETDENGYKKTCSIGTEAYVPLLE"}, "UniProt Q8IIM5": {"biological_target": "UniProt Q8IIM5"}, "UniProt Q8IIW6": {"biological_target": "UniProt Q8IIW6"}, "UniProt Q8IJ37": {"biological_target": "UniProt Q8IJ37"}, "UniProt Q8IJI0": {"biological_target": "UniProt Q8IJI0"}, "UniProt Q8IJS1": {"biological_target": "UniProt Q8IJS1"}, "UniProt Q8IJZ3": {"biological_target": "UniProt Q8IJZ3"}, "UniProt Q8IKL1": {"biological_target": "UniProt Q8IKL1"}, "UniProt Q8IKU0": {"biological_target": "UniProt Q8IKU0", "sequence (Q8IKU0 whole entry)": "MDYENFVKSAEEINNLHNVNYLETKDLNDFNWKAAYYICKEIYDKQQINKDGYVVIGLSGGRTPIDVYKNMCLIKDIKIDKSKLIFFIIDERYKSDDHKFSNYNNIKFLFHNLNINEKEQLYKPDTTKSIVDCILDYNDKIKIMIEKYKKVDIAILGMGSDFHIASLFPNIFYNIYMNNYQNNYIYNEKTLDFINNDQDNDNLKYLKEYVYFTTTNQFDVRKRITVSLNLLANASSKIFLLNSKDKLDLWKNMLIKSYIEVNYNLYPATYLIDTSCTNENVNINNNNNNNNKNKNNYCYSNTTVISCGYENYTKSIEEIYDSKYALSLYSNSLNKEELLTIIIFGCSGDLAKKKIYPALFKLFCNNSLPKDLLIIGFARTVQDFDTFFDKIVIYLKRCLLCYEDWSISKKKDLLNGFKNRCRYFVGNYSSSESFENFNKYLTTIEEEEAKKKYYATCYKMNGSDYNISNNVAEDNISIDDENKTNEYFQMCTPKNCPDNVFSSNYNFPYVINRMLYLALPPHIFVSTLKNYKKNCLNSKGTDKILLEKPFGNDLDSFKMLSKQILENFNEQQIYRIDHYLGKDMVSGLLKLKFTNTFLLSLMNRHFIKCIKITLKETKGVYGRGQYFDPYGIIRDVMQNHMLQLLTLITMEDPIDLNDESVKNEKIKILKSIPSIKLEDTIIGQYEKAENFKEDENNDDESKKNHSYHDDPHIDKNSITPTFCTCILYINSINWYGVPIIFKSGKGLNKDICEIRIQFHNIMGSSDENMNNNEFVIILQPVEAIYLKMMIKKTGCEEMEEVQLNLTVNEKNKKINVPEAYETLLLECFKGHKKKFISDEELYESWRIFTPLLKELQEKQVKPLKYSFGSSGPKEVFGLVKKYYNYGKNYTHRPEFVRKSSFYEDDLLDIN"}, "UniProt Q8IL53": {"biological_target": "UniProt Q8IL53"}, "UniProt Q8ILE8": {"biological_target": "UniProt Q8ILE8"}, "UniProt Q8ILJ7": {"biological_target": "UniProt Q8ILJ7"}, "UniProt Q8ILQ7": {"biological_target": "UniProt Q8ILQ7", "sequence (Q8ILQ7 whole entry)": "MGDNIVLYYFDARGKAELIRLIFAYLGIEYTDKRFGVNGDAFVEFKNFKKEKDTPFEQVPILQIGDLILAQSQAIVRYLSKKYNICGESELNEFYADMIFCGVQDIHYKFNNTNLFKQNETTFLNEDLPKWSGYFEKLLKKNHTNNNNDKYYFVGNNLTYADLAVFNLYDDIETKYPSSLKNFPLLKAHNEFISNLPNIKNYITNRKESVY"}, "UniProt Q8ILQ8": {"biological_target": "UniProt Q8ILQ8"}, "UniProt Q8ILX1": {"biological_target": "UniProt Q8ILX1"}, "UniProt Q8ILY8": {"biological_target": "UniProt Q8ILY8"}}, "data": [{"smiles": "O=c1[nH]c2ccc(Cl)cc2c(NC2CN3CCC2CC3)c1-c1nc2ccccc2[nH]1", "note": "(stereo unspecified) [CHIR-124]", "values": [{"measurement": "IC50", "setting": "UniProt C0H4X1", "value": "> 20", "unit": "µM"}, {"measurement": "IC50", "setting": "UniProt C0H516", "value": "> 20", "unit": "µM"}, {"measurement": "IC50", "setting": "UniProt C0H551", "value": "> 20", "unit": "µM"}, {"measurement": "IC50", "setting": "UniProt C0H5A0", "value": "> 20", "unit": "µM"}, {"measurement": "IC50", "setting": "UniProt C0H5C2", "value": "> 20", "unit": "µM"}, {"measurement": "IC50", "setting": "UniProt C0H5L6", "value": "> 20", "unit": "µM"}, {"measurement": "IC50", "setting": "UniProt C6KSZ6", "value": 2.22, "unit": "µM"}, {"measurement": "IC50", "setting": "UniProt C6KT64", "value": "> 20", "unit": "µM"}, {"measurement": "IC50", "setting": "UniProt O77330", "value": "> 20", "unit": "µM"}, {"measurement": "IC50", "setting": "UniProt O77345", "value": "> 20", "unit": "µM"}, {"measurement": "IC50", "setting": "UniProt O77388", "value": "> 20", "unit": "µM"}, {"measurement": "IC50", "setting": "UniProt O96212", "value": "> 20", "unit": "µM"}, {"measurement": "IC50", "setting": "UniProt Q6ZMA8", "value": "> 20", "unit": "µM"}, {"measurement": "IC50", "setting": "UniProt Q76NN6", "value": "> 20", "unit": "µM"}, {"measurement": "IC50", "setting": "UniProt Q7K6A8", "value": "> 20", "unit": "µM"}, {"measurement": "IC50", "setting": "UniProt Q8I266", "value": "> 20", "unit": "µM"}, {"measurement": "IC50", "setting": "UniProt Q8I2J4", "value": "> 20", "unit": "µM"}, {"measurement": "IC50", "setting": "UniProt Q8I3L4", "value": "> 20", "unit": "µM"}, {"measurement": "IC50", "setting": "UniProt Q8I3Q6", "value": "> 20", "unit": "µM"}, {"measurement": "IC50", "setting": "UniProt Q8I4R5", "value": "> 20", "unit": "µM"}, {"measurement": "IC50", "setting": "UniProt Q8I4V8", "value": "> 20", "unit": "µM"}, {"measurement": "IC50", "setting": "UniProt Q8I535", "value": "< 0.0823", "unit": "µM"}, {"measurement": "IC50", "setting": "UniProt Q8I5A4", "value": "> 20", "unit": "µM"}, {"measurement": "IC50", "setting": "UniProt Q8I5B2", "value": "> 20", "unit": "µM"}, {"measurement": "IC50", "setting": "UniProt Q8I5S6", "value": "> 20", "unit": "µM"}, {"measurement": "IC50", "setting": "UniProt Q8IAV1", "value": "> 20", "unit": "µM"}, {"measurement": "IC50", "setting": "UniProt Q8IBA0", "value": "> 20", "unit": "µM"}, {"measurement": "IC50", "setting": "UniProt Q8IBK8", "value": "> 20", "unit": "µM"}, {"measurement": "IC50", "setting": "UniProt Q8IBY4", "value": "> 20", "unit": "µM"}, {"measurement": "IC50", "setting": "UniProt Q8IC06", "value": "> 20", "unit": "µM"}, {"measurement": "IC50", "setting": "UniProt Q8IDH5", "value": "> 20", "unit": "µM"}, {"measurement": "IC50", "setting": "UniProt Q8IDI5", "value": "> 20", "unit": "µM"}, {"measurement": "IC50", "setting": "UniProt Q8II62", "value": "> 20", "unit": "µM"}, {"measurement": "IC50", "setting": "UniProt Q8IIB4", "value": "> 20", "unit": "µM"}, {"measurement": "IC50", "setting": "UniProt Q8IIJ6", "value": "> 20", "unit": "µM"}, {"measurement": "IC50", "setting": "UniProt Q8IIL0", "value": "> 20", "unit": "µM"}, {"measurement": "IC50", "setting": "UniProt Q8IIM5", "value": "> 20", "unit": "µM"}, {"measurement": "IC50", "setting": "UniProt Q8IIW6", "value": 0.25, "unit": "µM"}, {"measurement": "IC50", "setting": "UniProt Q8IJ37", "value": "> 20", "unit": "µM"}, {"measurement": "IC50", "setting": "UniProt Q8IJI0", "value": "> 20", "unit": "µM"}, {"measurement": "IC50", "setting": "UniProt Q8IJS1", "value": "> 20", "unit": "µM"}, {"measurement": "IC50", "setting": "UniProt Q8IJZ3", "value": "> 20", "unit": "µM"}, {"measurement": "IC50", "setting": "UniProt Q8IKL1", "value": "> 20", "unit": "µM"}, {"measurement": "IC50", "setting": "UniProt Q8IKU0", "value": "> 20", "unit": "µM"}, {"measurement": "IC50", "setting": "UniProt Q8IL53", "value": "> 20", "unit": "µM"}, {"measurement": "IC50", "setting": "UniProt Q8ILE8", "value": "> 20", "unit": "µM"}, {"measurement": "IC50", "setting": "UniProt Q8ILJ7", "value": "> 20", "unit": "µM"}, {"measurement": "IC50", "setting": "UniProt Q8ILQ7", "value": "> 20", "unit": "µM"}, {"measurement": "IC50", "setting": "UniProt Q8ILQ8", "value": "> 20", "unit": "µM"}, {"measurement": "IC50", "setting": "UniProt Q8ILX1", "value": "> 20", "unit": "µM"}, {"measurement": "IC50", "setting": "UniProt Q8ILY8", "value": "> 20", "unit": "µM"}]}]}
